Values of other authors as cited in PMC5590095 (Chemical Science, 2017).

Tested on: tubulin

Celogentin C
inhibitory activity against tubulin polymerization: inhibitory activity against tubulin polymerization
